According to patent US6821746B2, “Methods of screening for FabK antagonists and agonists” (priority 2000, dated 2004):

Target: T1, S.pneumoniae FabK, enoyl-ACP reductase (Streptococcus pneumoniae, UniProt Q9FBC5, T318A)
T1 construct: […]; made in house; host or cells: E. coli BL21 (DE3) harboring tRNA vector pRR692; plasmid pET24bSpfabK
Test: FabK enzyme activity assay (NADH oxidation at 340 nm, crotonoyl-ACP reduction)
Assay type: biochemical
Details: NH4+ at 100 mM; greatest activation among monovalent cations
Method: FabK catalyses the reduction of enoyl-ACPs with the concommitant oxidation of NADH. Crotonoyl-ACP can be prepared as described below. The reduction of crotonoyl-ACP to butyryl-ACP can be monitored by following the change in absorbance at 340 nm as NADH is oxidised.
Assays were carried out in Costar 3696 half-area plates in a final assay volume of 150 ul on a Spectramax platereader. Substrates, NADH and crotonoyl ACP, were incubated with FabK enzyme in 100 mM N-[2-acetamido]-2 iminodiacetic acid (ADA), pH 6.5, 100 mM NH4Cl, 4% glycerol at 30° C. and the reaction monitored at 340 nm. This assaying can also be performed using crotonyl CoA, NADPH or an NADH analogue as a substrate.

T1 sequence (Q9FBC5 whole entry T318A): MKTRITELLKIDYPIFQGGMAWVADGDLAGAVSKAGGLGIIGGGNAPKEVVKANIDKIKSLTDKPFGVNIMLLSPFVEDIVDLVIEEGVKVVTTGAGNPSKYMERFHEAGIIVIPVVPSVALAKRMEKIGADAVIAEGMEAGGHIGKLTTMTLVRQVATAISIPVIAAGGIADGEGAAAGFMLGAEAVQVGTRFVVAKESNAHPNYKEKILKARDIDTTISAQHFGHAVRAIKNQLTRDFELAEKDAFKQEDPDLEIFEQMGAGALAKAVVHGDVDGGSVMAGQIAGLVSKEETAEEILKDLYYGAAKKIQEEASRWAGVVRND

Cl.N [NH4+, NH4^+]
activation of the FabK reaction over the reaction with no monovalent cations: about 300 fold
